The source of these data is PMC5015106 (Scientific Reports, 2016).

Holding throughout (assay type): biochemical
One assay has as its target T1, CPA (Homo sapiens, UniProt P15085).
T1 sequence (P15085 111-419): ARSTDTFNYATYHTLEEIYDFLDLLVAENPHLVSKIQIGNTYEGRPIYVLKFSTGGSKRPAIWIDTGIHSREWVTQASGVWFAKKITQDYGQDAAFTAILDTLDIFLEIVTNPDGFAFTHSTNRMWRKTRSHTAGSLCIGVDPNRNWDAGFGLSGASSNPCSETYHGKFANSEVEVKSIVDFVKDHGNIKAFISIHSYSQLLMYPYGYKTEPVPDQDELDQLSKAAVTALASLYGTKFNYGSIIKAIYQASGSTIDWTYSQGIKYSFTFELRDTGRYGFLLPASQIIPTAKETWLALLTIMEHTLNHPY
The experiment in a line: Protease/carboxypeptidase panel: CPA. The text has this:
Supplement srep32958-s1.docx, table 1: Table S1: Activities of Anabaenopeptins against a panel of proteases/carboxypeptidases. | column: CPA

In another assay the target is T2, CPN (Homo sapiens, UniProt P15169).
T2 sequence (P15169 21-458): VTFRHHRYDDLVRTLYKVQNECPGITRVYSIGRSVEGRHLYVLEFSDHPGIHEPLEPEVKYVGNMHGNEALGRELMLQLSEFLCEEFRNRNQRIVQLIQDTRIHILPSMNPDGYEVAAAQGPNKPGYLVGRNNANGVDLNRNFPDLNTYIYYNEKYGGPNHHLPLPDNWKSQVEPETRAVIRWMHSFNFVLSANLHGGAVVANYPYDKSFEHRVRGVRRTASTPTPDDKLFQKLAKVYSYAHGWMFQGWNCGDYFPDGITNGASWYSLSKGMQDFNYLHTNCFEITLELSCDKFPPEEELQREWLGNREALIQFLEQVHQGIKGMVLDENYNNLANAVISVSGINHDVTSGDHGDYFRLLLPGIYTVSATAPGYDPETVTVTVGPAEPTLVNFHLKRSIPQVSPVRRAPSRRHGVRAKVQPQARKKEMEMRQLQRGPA
T2 sequence (P22792 22-545 partner): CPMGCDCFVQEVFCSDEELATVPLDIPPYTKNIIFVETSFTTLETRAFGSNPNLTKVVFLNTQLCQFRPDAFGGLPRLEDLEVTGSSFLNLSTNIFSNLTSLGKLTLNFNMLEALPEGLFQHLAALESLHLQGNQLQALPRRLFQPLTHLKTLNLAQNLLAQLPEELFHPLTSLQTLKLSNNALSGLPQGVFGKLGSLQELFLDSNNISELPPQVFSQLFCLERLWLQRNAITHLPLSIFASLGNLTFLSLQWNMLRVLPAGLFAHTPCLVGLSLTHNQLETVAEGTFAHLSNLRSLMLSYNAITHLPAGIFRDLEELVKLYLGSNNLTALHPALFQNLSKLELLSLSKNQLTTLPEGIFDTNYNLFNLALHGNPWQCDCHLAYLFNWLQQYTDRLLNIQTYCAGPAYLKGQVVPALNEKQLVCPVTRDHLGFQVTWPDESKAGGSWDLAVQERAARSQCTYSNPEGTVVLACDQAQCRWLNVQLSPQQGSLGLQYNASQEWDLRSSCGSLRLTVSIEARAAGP
The experiment in a line: Protease/carboxypeptidase panel: CPN. The conditions noted are these: read-out: IC50 CPN. The text has this:
Supplement srep32958-s1.docx, table 1: Table S1: Activities of Anabaenopeptins against a panel of proteases/carboxypeptidases. | column: CPN

A further assay concerns the target FXa (Homo sapiens, UniProt P00742). Put plainly: Protease/carboxypeptidase panel: FXa. Conditions: 100 µM; read-out: Inh.@100µM in % FXa. The text has this:
Supplement srep32958-s1.docx, table 1: Table S1: Activities of Anabaenopeptins against a panel of proteases/carboxypeptidases. | column: FXa

Another assay concerns the target T3, FVIIa (Homo sapiens, UniProt P08709).
T3 sequence (P08709 213-466 limits assumed): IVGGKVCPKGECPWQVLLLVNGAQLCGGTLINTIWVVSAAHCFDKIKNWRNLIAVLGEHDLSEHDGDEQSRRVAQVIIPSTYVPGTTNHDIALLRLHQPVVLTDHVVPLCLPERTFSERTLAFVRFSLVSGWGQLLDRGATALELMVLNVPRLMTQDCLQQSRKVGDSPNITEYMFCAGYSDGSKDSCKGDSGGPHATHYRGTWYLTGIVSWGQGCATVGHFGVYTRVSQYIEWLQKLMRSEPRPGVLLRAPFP
T3 sequence (P08709 61-212 partner limits assumed): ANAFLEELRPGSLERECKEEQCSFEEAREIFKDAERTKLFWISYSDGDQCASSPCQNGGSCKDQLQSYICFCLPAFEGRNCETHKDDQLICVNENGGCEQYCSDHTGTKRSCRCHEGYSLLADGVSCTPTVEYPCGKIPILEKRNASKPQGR
The experiment in a line: Protease/carboxypeptidase panel: FVIIa. Conditions: read-out: Inh.@100µM in % FVIIa. The text has this:
Supplement srep32958-s1.docx, table 1: Table S1: Activities of Anabaenopeptins against a panel of proteases/carboxypeptidases. | column: FVIIa

The next assay addresses FIIa (Homo sapiens, UniProt P00734). The experiment in a line: Protease/carboxypeptidase panel: FIIa. The conditions noted are these: read-out: Ki FIIa. The text has this:
Supplement srep32958-s1.docx, table 1: Table S1: Activities of Anabaenopeptins against a panel of proteases/carboxypeptidases. | column: FIIa

The structures appear in SMILES notation. Numbered stars: 1 amine (or outer) side, 2 acyl side, 3 side chain; on linkers, the order of the positions; unused ones are H or OH. Bridge positions count the residues as written; N and C are the ends. Square brackets hold non-standard residues; d marks the D form. Peptide text beside a SMILES is read from it. hTyr = N[CH](CCc1ccc(O)cc1)C(=O)O; NMeA = CN[CH](C)C(=O)O; CO = O=C([*:1])[*:2]

Sequence of FXa (P00742 235-488 limits assumed): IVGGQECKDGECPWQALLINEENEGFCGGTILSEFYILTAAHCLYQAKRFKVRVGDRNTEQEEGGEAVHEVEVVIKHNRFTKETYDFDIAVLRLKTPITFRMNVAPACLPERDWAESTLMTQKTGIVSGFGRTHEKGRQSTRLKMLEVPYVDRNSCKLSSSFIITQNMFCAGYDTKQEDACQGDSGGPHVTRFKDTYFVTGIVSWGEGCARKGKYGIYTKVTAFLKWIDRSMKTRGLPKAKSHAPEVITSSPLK
Sequence of FXa (P00742 41-179 partner limits assumed): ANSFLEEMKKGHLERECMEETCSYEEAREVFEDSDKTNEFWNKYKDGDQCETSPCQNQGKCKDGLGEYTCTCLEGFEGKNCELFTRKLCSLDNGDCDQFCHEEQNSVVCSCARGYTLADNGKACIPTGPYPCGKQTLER

One may read the IC50 as the concentration that gives 50% inhibition. The term Ki denotes the dissociation constant of the complex between target and ligand, obtained from inhibition or displacement. As to `CC(C)[C@@H]1NC(=O)[C@H](NC(=O)N[C@@H](CCCNC(=N)N)C(=O)O)CCCCNC(=O)[C@H](Cc2ccccc2)NC(=O)[C@H](C)N(C)C(=O)[C@H](CCc2ccc(O)cc2)NC1=O` [Compound 1, Anabaenopeptin B] ({Arg-CO}-[dK]V[hTyr][NMeA]F; lactam 1-C), the IC50 stood at 3.9 µM against CPA and 5.4 µM on CPN. The inhibition at 100 µM on FXa came to 22%; at FVIIa, 35%. The inhibition constant (Ki) at FIIa is 1.6 µM.

With `CC(C)C1NC(=O)C(NC(=O)NC(CCCCN)C(=O)O)CCCCNC(=O)C(Cc2ccccc2)NC(=O)C(C)N(C)C(=O)C(CCc2ccc(O)cc2)NC1=O` (stereo not shown) [Compound 2, Anabaenopeptin C] ({Lys-CO}-KV[hTyr][NMeA]F; lactam 1-C; configuration not given here), the inhibition at 100 µM turned out to be 31% at CPA (100 µM, read-out: Inh.@100µM in % CPA); 42% at FXa; 36% at FVIIa. Further, the IC50 at CPN was determined as 5.7 µM. For the same molecule, the Ki at FIIa was 6 µM.
